Test results taken from patent publication US11472798B2 (Mission Therapeutics Limited, priority 2014, dated 2022).
pIC50: −log10 of the molar value.

Each compound was assayed against T1, UCHL1 (Homo sapiens, UniProt P09936) (assay: UCHL1 biochemical IC50 assay (fluorescence polarisation)). Conditions: 30 min enzyme/compound pre-incubation at room temp, read after 2 hr incubation, read-out: Activity range (UCHL1 biochemical IC50 assay).
T1 construct: made in house; host or cells: HEK293T
T1 sequence (P09936 1-223): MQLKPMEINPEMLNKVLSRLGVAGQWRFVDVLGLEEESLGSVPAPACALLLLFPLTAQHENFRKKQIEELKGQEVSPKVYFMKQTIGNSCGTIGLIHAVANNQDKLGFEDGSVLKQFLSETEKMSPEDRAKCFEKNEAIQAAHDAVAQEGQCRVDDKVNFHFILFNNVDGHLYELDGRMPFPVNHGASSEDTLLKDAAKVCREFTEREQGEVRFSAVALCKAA
Procedure, shortened: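 Fluorescence polarisation (ex 540/em 590 nm) of 50 nM TAMRA-labelled ubiquitin–peptide isopeptide substrate was read at time zero and after 2 h at room temperature. Compounds (100–0.03 μM final, in duplicate) were given 30 min preincubation with N-FLAG UCHL1 from HEK293T cells in pH 7.5 Tris buffer.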

| Compound | pIC50 |
| --- | --- |
| CNC(=O)c1cccc(-n2cnc(NC(=O)[C@H]3CCN(C#N)C3)c2)c1 [Example 156, (S)-1-cyano-N-(1-(3-(methylcarbamoyl)phenyl)-1H-imidazol-4-yl)pyrrolidine-3-carboxamide] | > 6.00 |
| N#CN1CCC(C(=O)Nc2ccc(N3CCCCC3)cn2)C1 (centres unmarked) [Example 29, 1-cyano-N-(5-(piperidin-1-yl)pyridin-2-yl)pyrrolidine-3-carboxamide] | 5.00 to 6.00 |
| Cc1c(-c2cnn(C)c2)ccc2nc(NC(=O)[C@H]3CCN(C#N)C3)sc12 [Example 139, (S)-1-cyano-N-(7-methyl-6-(1-methyl-1H-pyrazol-4-yl)benzo[d]thiazol-2-yl)pyrrolidine-3-carboxamide] | > 6.00 |
| N#CN1CCC(C(=O)Nc2ncc(N3CCc4ccccc43)s2)C1 (centres unmarked) [Example 95, 1-cyano-N-(5-(indolin-1-yl)thiazol-2-yl)pyrrolidine-3-carboxamide] | > 6.00 |
| Cc1noc(C)c1-c1ccc2nc(NC(=O)[C@H]3CCN(C#N)C3)cn2c1 [Example 128, (S)-1-cyano-N-(6-(3,5-dimethylisoxazol-4-yl)imidazo[1,2-a]pyridin-2-yl)pyrrolidine-3-carboxamide] | > 6.00 |
| N#CN1CC[C@H](C(=O)Nc2cn(-c3ccc4[nH]ncc4c3)cn2)C1 [Example 300, (S)-N-(1-(1H-indazol-5-yl)-1H-imidazol-4-yl)-1-cyanopyrrolidine-3-carboxamide] | > 6.00 |
| CCCn1cnc2cc(NC(=O)C3CCN(C#N)C3)ccc21 (centres unmarked) [Example 40, 1-cyano-N-(1-propyl-1H-benzo[d]imidazol-5-yl)pyrrolidine-3-carboxamide] | 5.00 to 6.00 |
| COC1(C(=O)Nc2ncc(-c3ccccc3)s2)CCN(C#N)C1 (centres unmarked) [Example 284, 1-cyano-3-methoxy-N-(5-phenylthiazol-2-yl)pyrrolidine-3-carboxamide] | > 6.00 |

More lines, now with the values ahead:

| pIC50 | Compound |
| --- | --- |
| > 6.00 | Cc1nn(C)cc1-c1ccc2nc(NC(=O)[C@H]3CCN(C#N)C3)sc2c1 [Example 288, (S)-1-cyano-N-(6-(1,3-dimethyl-1H-pyrazol-4-yl)benzo[d]thiazol-2-yl)pyrrolidine-3-carboxamide] |
| 5.00 to 6.00 | CC(C)(C)c1ccnc(NC(=O)[C@H]2CCN(C#N)C2)c1 [Example 273, (S)-N-(4-(tert-butyl)pyridin-2-yl)-1-cyanopyrrolidine-3-carboxamide] |
| > 6.00 | Cc1noc(C)c1-c1ccc2nc(NC(=O)[C@@H]3CN(C#N)C[C@H]3C(F)(F)F)cn2c1 (racemic) [Example 210, (±)-trans-1-cyano-N-(6-(3,5-dimethylisoxazol-4-yl)imidazo[1,2-a]pyridin-2-yl)-4-(trifluoromethyl)pyrrolidine-3-carboxamide] |
| > 6.00 | N#CN1CC[C@H](C(=O)Nc2cc3n(n2)CCN(c2ccccc2)C3)C1 [Example 241, (S)-1-cyano-N-(5-phenyl-4,5,6,7-tetrahydropyrazolo[1,5-a]pyrazin-2-yl)pyrrolidine-3-carboxamide] |
| 4.52 to 5.00 | Cc1noc(C)c1-c1cc2sc(NC(=O)[C@H]3CCN(C#N)C3)nc2cn1 [Example 296, (S)-1-cyano-N-(6-(3,5-dimethylisoxazol-4-yl)thiazolo[4,5-c]pyridin-2-yl)pyrrolidine-3-carboxamide] |
| > 6.00 | Cc1cccc(-c2cc(NC(=O)[C@H]3CCN(C#N)C3)nn2C)c1 [Example 271, (S)-1-cyano-N-(1-methyl-5-(m-tolyl)-1H-pyrazol-3-yl)pyrrolidine-3-carboxamide] |
| 4.52 to 5.00 | Cc1cccc2sc(NC(=O)[C@H]3CCN(C#N)C3)nc12 [Example 46, (S)-1-cyano-N (4-methylbenzo[d]thiazol-2-yl)pyrrolidine-3-carboxamide] |
| > 6.00 | COc1ccc(-n2cnc(NC(=O)[C@H]3CCN(C#N)C3)c2)cc1 [Example 159, (S)-1-cyano-N-(1-(4-methoxyphenyl)-1H-imidazol-4-yl)pyrrolidine-3-carboxamide] |
| > 6.00 | Cc1noc(C)c1-c1ccc2nc(NC(=O)[C@H]3CCN(C#N)C3)sc2c1C [Example 138, (S)-1-cyano-N-(6-(3,5-dimethylisoxazol-4-yl)-7-methylbenzo[d]thiazol-2-yl)pyrrolidine-3-carboxamide] |
